Data published in PubChem BioAssay AID248 (DTP/NCI, 2004).
“And” between values parts separate entries of the source, which are not always exact repeats. Equal values may be shown once. Inconclusive results and toxic doses are left out. Rule as the data show it: active = T/C of 150% or more; inactive = T/C below 125%.

Test system: L1210 leukemia ip in BDF1 mice, survival T/C
Experiment: NCI In Vivo Anticancer Drug Screen. Data for tumor model L1210 Leukemia (intraperitoneal) in B6D2F1 (BDF1) mice
Conditions: endpoint: mean survival time, higher = longer survival
Summary of the method: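 Transplanted-tumor mice were given test agent; controls received vehicle only. Survival readings from the two groups were divided (treated over control).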

[1] = dose: 100.0 mg/kg/injection, schedule: Q04DX003 (ip), vehicle: saline with Tween-80
[2] = dose: 200.0 mg/kg/injection, schedule: Q04DX003 (ip), vehicle: saline with Tween-80
[3] = dose: 400.0 mg/kg/injection, schedule: Q04DX003 (ip), vehicle: saline with Tween-80
[4] = dose: 100.0 mg/kg/injection, schedule: Q01DX009 (ip), vehicle: saline with Tween-80
[5] = dose: 200.0 mg/kg/injection, schedule: Q01DX009 (ip), vehicle: saline with Tween-80
[6] = dose: 400.0 mg/kg/injection, schedule: Q01DX009 (ip), vehicle: saline with Tween-80
[7] = dose: 100.0 mg/kg/injection, schedule: Q04DX002 (ip), vehicle: saline with Tween-80
[8] = dose: 200.0 mg/kg/injection, schedule: Q04DX002 (ip), vehicle: saline with Tween-80
[9] = dose: 400.0 mg/kg/injection, schedule: Q04DX002 (ip), vehicle: saline with Tween-80
[10] = dose: 100.0 mg/kg/injection, schedule: Q01DX001 (ip), vehicle: saline
[11] = dose: 100.0 mg/kg/injection, schedule: Q04DX003 (ip), vehicle: saline
[12] = dose: 200.0 mg/kg/injection, schedule: Q01DX001 (ip), vehicle: saline
[13] = dose: 200.0 mg/kg/injection, schedule: Q04DX003 (ip), vehicle: saline
[14] = dose: 400.0 mg/kg/injection, schedule: Q01DX001 (ip), vehicle: saline
[15] = dose: 400.0 mg/kg/injection, schedule: Q04DX003 (ip), vehicle: saline
[16] = dose: 50.0 mg/kg/injection, schedule: Q01DX009 (ip), vehicle: saline
[17] = dose: 100.0 mg/kg/injection, schedule: Q01DX009 (ip), vehicle: saline
[18] = dose: 200.0 mg/kg/injection, schedule: Q01DX009 (ip), vehicle: saline

Measured: T/C

N=C(OC1CCCCC1)N1CCOCC1
inactive: dose: 22.0 mg/kg/injection, schedule: Q01DX Z (ip), vehicle: saline 100 % of control | dose: 33.0 mg/kg/injection, schedule: Q01DX Z (ip), vehicle: saline 102 % of control | dose: 50.0 mg/kg/injection, schedule: Q01DX Z (ip), vehicle: saline 106 % of control

CCOC(CN=Cc1cccc2ccccc12)OCC
inactive: [1] 95 % of control | [2] 93 % of control | [3] 95 % of control

CC(=O)Nc1cccc2c1C(=O)OC2=O
inactive: [4] 105 % of control | [1] 102 % of control | [5] 89 % of control | [2] 99 % of control | [6] 93 % of control | [3] 94 % of control

CCOc1ccc(N=Cc2ccc(OC(=O)c3ccccc3)c(OC)c2)cc1
inactive: [7] 102 % of control | [8] 95 % of control | [9] 113 % of control

Cc1c(C#N)oc2cccc(O)c12
inactive: dose: 100.0 mg/kg/injection, schedule: Q01DX009 (ip), vehicle: Klucel (hydroxypropylcellulose) (HPC) 100 % of control | dose: 100.0 mg/kg/injection, schedule: Q04DX002 (ip), vehicle: Klucel (hydroxypropylcellulose) (HPC) 109 % of control | dose: 200.0 mg/kg/injection, schedule: Q01DX009 (ip), vehicle: Klucel (hydroxypropylcellulose) (HPC) 100 % of control | dose: 200.0 mg/kg/injection, schedule: Q04DX002 (ip), vehicle: Klucel (hydroxypropylcellulose) (HPC) 109 % of control | dose: 400.0 mg/kg/injection, schedule: Q01DX009 (ip), vehicle: Klucel (hydroxypropylcellulose) (HPC) 96 % of control | dose: 400.0 mg/kg/injection, schedule: Q04DX002 (ip), vehicle: Klucel (hydroxypropylcellulose) (HPC) 102 % of control

O=[N+]([O-])c1ccc(O)c(I)c1
inactive: [10] 97 % of control | [11] 100 % of control | [12] 98 % of control | [13] 105 % of control | [14] 95 % of control | [15] 102 % of control

ClC1(Cl)C2/C=C/CCCCC21 (stereo not drawn)
inactive: dose: 100.0 mg/kg/injection, schedule: Q01DX005 (ip), vehicle: saline with Tween-80 105 % of control | [7] 92 % of control | dose: 200.0 mg/kg/injection, schedule: Q01DX005 (ip), vehicle: saline with Tween-80 92 % of control | [8] 113 % of control | dose: 400.0 mg/kg/injection, schedule: Q01DX005 (ip), vehicle: saline with Tween-80 92 % of control | [9] 95 % of control

COC(=O)C(CCCN=C(N)N)NC(=O)OCc1ccccc1 (stereo not drawn)
inactive: [11] 105 % of control | [13] 110 % of control | [15] 108 % of control

CC1(c2cccc([N+](=O)[O-])c2)OCCO1
inactive: dose: 100.0 mg/kg/injection, schedule: Q01DX009 (ip), vehicle: other 100 % of control | dose: 100.0 mg/kg/injection, schedule: Q04DX003 (ip), vehicle: other 103 % of control | dose: 200.0 mg/kg/injection, schedule: Q01DX009 (ip), vehicle: other 98 % of control | dose: 200.0 mg/kg/injection, schedule: Q04DX003 (ip), vehicle: other 104 % of control | dose: 400.0 mg/kg/injection, schedule: Q01DX009 (ip), vehicle: other 104 % of control | dose: 400.0 mg/kg/injection, schedule: Q04DX003 (ip), vehicle: other 100 % of control

COc1ccc2c(c1O)-c1cc(O)cc3c1C(C2)NCC3 (stereo not drawn)
inactive: dose: 0.63 mg/kg/injection, schedule: Q04DX003 (ip), vehicle: DMSO 105 % of control | dose: 1.25 mg/kg/injection, schedule: Q04DX003 (ip), vehicle: DMSO 96 % of control | dose: 2.5 mg/kg/injection, schedule: Q04DX003 (ip), vehicle: DMSO 93 % of control

O=S(=O)(O)c1cc(O)c2cc(Nc3ccccc3)ccc2c1
inactive: [16] 96 % of control | [17] 93 % of control | [11] 89 % of control | [18] 102 % of control | [13] 100 % of control

CC(=O)OC1c2ccccc2C2c3ccccc3C1C2Cl (stereo not drawn)
inactive: dose: 176.0 mg/kg/injection, schedule: Q01DX001 (ip), vehicle: carboxymethylcellulose (CMC) 91 % of control | dose: 264.0 mg/kg/injection, schedule: Q01DX001 (ip), vehicle: carboxymethylcellulose (CMC) 95 % of control | dose: 400.0 mg/kg/injection, schedule: Q01DX001 (ip), vehicle: carboxymethylcellulose (CMC) 92 % of control | dose: 600.0 mg/kg/injection, schedule: Q01DX001 (ip), vehicle: carboxymethylcellulose (CMC) 89 % of control

O=C(O)C(F)(F)C(F)(F)C(F)(F)F.O=C(O)C(F)(F)C(F)(F)C(F)(F)F.O=C(O)C(F)(F)C(F)(F)C(F)(F)F.O=C(O)C(F)(F)C(F)(F)C(F)(F)F.[Rh].[Rh]
inactive: dose: 25.0 mg/kg/injection, schedule: Q04DX002 (ip), vehicle: saline with Tween-80 94 % of control | dose: 50.0 mg/kg/injection, schedule: Q04DX002 (ip), vehicle: saline with Tween-80 102 % of control | [7] 105 % of control

CCN/C(C)=C\C(=O)OCC
inactive: [4] 95 % of control | [1] 96 % of control | [5] 111 % of control | [2] 107 % of control | [6] 95 % of control | [3] 105 % of control

O=[N+]([O-])/C(Br)=C\c1ccc([N+](=O)[O-])cc1
inactive: dose: 75.0 mg/kg/injection, schedule: Q01DX001 (ip), vehicle: carboxymethylcellulose (CMC) 98 % of control | dose: 150.0 mg/kg/injection, schedule: Q01DX001 (ip), vehicle: carboxymethylcellulose (CMC) 105 % of control

CCOc1nc(C)cc(C(=O)O)c1C#N
inactive: dose: 75.0 mg/kg/injection, schedule: Q01DX001 (ip), vehicle: other 95 % of control | dose: 150.0 mg/kg/injection, schedule: Q01DX001 (ip), vehicle: other 100 % of control | dose: 300.0 mg/kg/injection, schedule: Q01DX001 (ip), vehicle: other 103 % of control

O=C1c2ccccc2C(=O)N1c1c[nH]c(=O)[nH]c1=O
inactive: dose: 25.0 mg/kg/injection, schedule: Q04DX003 (ip), vehicle: Klucel (hydroxypropylcellulose) (HPC) 95 % of control | dose: 50.0 mg/kg/injection, schedule: Q04DX003 (ip), vehicle: Klucel (hydroxypropylcellulose) (HPC) 93 % of control

C[C@@H](c1ccccc1)[C@@H](C(=O)O)c1ccccc1
inactive: dose: 50.0 mg/kg/injection, schedule: Q01DX001 (ip), vehicle: saline 109 % of control | [10] 94 % of control | [12] 97 % of control | [14] 97 % of control

CN(C)c1nnnn1-c1ccccc1
inactive: [11] 100 % of control | [13] 96 % of control | [15] 105 % of control

CCN(c1ccccc1)P(I)(c1ccccc1)(c1ccccc1)c1ccccc1
inactive: dose: 1.17 mg/kg/injection, schedule: Q01DX001 (ip), vehicle: other 107 % of control | dose: 2.34 mg/kg/injection, schedule: Q01DX001 (ip), vehicle: other 114 % of control | dose: 4.69 mg/kg/injection, schedule: Q01DX001 (ip), vehicle: other 107 % of control

CCN(CC)CCCC(C)NCCCN (stereo not drawn)
inactive: [16] 94 % of control | [17] 100 % of control and 106 % of control | [11] 90 % of control | [18] 104 % of control and 92 % of control | [13] 90 % of control

COc1ccc(NC(=O)C2C3C=CC(C3)C2C(=O)O)cc1 (stereo not drawn)
inactive: dose: 50.0 mg/kg/injection, schedule: Q01DX009 (ip), vehicle: saline with Tween-80 98 % of control | [4] 100 % of control | [5] 100 % of control
